Measured values reported in patent US8937080B2, “Pyrimidine substituted macrocyclic HCV inhibitors” (Medivir AB, priority 2007, dated 2015).
Like-named read-outs stand apart in the source and are kept apart here.

Tests used:
[1] = rcm bond, 14-membered ring, Hoveyda-Grubbs II, DCE, 16.0 h
[2] = from C=CCCCCN(C)C(=O)C1CC(Oc2ccnc(-c3ccccc3)n2)CC1C(=O)NC1(C(=O)NS(=O)(=O)C2CC2)CC1C=C; rcm bond; 14-membered ring; Hoveyda-Grubbs II; 150.0 °C; 0.17 h
[3] = tested on: HCV replicons (wild type NS3-NS5B regions of HCV type 1b) in Huh-7 luc/neo cells; assay: Replicon assay (Huh-Luc cells, luciferase readout); format: cell-based; conditions: Hepatitis C virus, Huh-7, 72 h, incubation of three days, luciferase activity
Description: The compounds of formula (I) were examined for activity in the inhibition of HCV RNA replication in a cellular assay. […] The cellular assay was based on a bicistronic expression construct, as described by Lohmann et al. (1999) Science vol. 285 pp. 110-113 with modifications described by Krieger et al. (2001) Journal of Virology 75: 4614-4624, in a multi-target screening strategy. In essence, the method was as follows.
The assay utilized the stably transfected cell line Huh-7 luc/neo (hereafter referred to as Huh-Luc). This cell line harbors an RNA encoding a bicistronic expression construct comprising the wild type NS3-NS5B regions of HCV type 1b translated from an Internal Ribosome Entry Site (IRES) from encephalomyocarditis virus (EMCV), preceded by a reporter portion (FfL-luciferase), and a selectable marker portion (neo^R, neomycine phosphotransferase). The construct is bordered by 5′ and 3′ NTRs (non-translated regions) from HCV type 1b. Continued culture of the replicon cells in the presence of G418 (neo^R) is dependent on the replication of the HCV RNA. The stably transfected replicon cells that express HCV RNA, which replicates autonomously and to high levels, encoding inter alia luciferase, are used for screening the antiviral compounds.
The replicon cells were plated in 384 well plates in the presence of the test and control compounds which were added in various concentrations. Following an incubation of three days, HCV replication was measured by assaying luciferase activity (using standard luciferase assay substrates and reagents and a Perkin Elmer ViewLux™ ultraHTS microplate imager). Replicon cells in the control cultures have high luciferase expression in the absence of any inhibitor. The inhibitory activity of the compound on luciferase activity was monitored on the Huh-Luc cells, enabling a dose-response curve for each test compound. EC50 values were then calculated, which value represents the amount of the compound required to decrease by 50% the level of detected luciferase activity, or more specifically, the ability of the genetically linked HCV replicon RNA to replicate.

[4] = molecular target: HCV NS3/4A protease complexes (full-length hepatitis C NS3 protease enzyme with NS4A cofactor) (Hepatitis C virus genotype 1a, UniProt P27958); assay: Inhibition assay (enzymatic assay, depsipeptide substrate hydrolysis); format: biochemical; conditions: enzyme 1 nM, 25 μM NS4A cofactor, 0.5 μM substrate, 30° C., competitive inhibition model
Chain of HCV NS3/4A protease complexes (full-length hepatitis C NS3 protease enzyme with NS4A cofactor) (P27958 1027-1657, other chains not shown): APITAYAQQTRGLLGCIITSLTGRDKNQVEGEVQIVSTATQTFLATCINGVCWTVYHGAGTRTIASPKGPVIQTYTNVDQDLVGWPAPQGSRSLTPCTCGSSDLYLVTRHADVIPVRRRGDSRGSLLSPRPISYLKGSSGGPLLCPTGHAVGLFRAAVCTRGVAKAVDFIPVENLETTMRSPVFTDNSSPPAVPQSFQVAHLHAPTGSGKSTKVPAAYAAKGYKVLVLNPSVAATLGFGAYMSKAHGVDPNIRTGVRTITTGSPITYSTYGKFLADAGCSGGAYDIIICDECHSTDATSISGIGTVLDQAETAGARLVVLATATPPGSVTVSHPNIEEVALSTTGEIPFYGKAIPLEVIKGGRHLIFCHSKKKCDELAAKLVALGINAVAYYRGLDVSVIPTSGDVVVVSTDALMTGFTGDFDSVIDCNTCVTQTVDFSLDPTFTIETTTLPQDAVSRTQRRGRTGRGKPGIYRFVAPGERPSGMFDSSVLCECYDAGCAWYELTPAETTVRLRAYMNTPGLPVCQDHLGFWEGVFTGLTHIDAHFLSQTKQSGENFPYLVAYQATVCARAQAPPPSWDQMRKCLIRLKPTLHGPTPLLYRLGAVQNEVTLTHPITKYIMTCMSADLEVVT
Procedure: The aim of this in vitro assay is to measure the inhibition of HCV NS3/4A protease complexes by the compounds of the present invention. This assay provides an indication of how effective compounds of the present invention would be in inhibiting HCV NS3/4A proteolytic activity.
The inhibition of full-length hepatitis C NS3 protease enzyme was measured essentially as described in Poliakov, 2002 Prot Expression & Purification 25 363 371. Briefly, the hydrolysis of a depsipeptide substrate, Ac-DED(Edans)EEAbuψ[COO]ASK(Dabcyl)-NH2 (AnaSpec, San José, USA), was measured spectrofluorometrically in the presence of a peptide cofactor, KKGSVVIVGRIVLSGK (Åke Engström, Department of Medical Biochemistry and Microbiology, Uppsala University, Sweden). [Landro, 1997 #Biochem 36 9340-9348]. The enzyme (1 nM) was incubated in 50 mM HEPES, pH 7.5, 10 mM DTT, 40% glycerol, 0.1% n-octyl-D-glucoside, with 25 μM NS4A cofactor and inhibitor at 30° C. for 10 min, whereupon the reaction was initiated by addition of 0.5 μM substrate. Inhibitors were dissolved in DMSO, sonicated for 30 sec. and vortexed. The solutions were stored at −20° C. between measurements.
The final concentration of DMSO in the assay sample was adjusted to 3.3%. The rate of hydrolysis was corrected for inner filter effects according to published procedures.
[Liu, 1999 Analytical Biochemistry 267 331-335]. Ki values were estimated by non-linear regression analysis (GraFit, Erithacus Software, Staines, MX, UK), using a model for competitive inhibition and a fixed value for Km (0.15 μM). A minimum of two replicates was performed for all measurements.

Question: With `CCOC(=O)C12CC1C=CCCCCN(C)C(=O)C1CC(Oc3cc(C(C)(C)C)nc(OC)n3)CC1C(=O)N2` (stereo not drawn) as the molecule, how does the ring closure, isolated yield ([1]; from C=CCCCCN(C)C(=O)C1CC(Oc2cc(C(C)(C)C)nc(OC)n2)CC1C(=O)NC1(C(=O)OCC)CC1C=C, 1.74 mM) read?
Answer: Its ring closure, isolated yield is 74%.

Question: With `CCOC(=O)C12CC1C=CCCCCN(C)C(=O)C1CC(Oc3cc(OC)nc(-c4ccccc4)n3)CC1C(=O)N2` (stereo not drawn) as the molecule, how does the ring closure, isolated yield ([1]; from C=CCCCCN(C)C(=O)C1CC(Oc2cc(OC)nc(-c3ccccc3)n2)CC1C(=O)NC1(C(=O)OCC)CC1C=C, 1.69 mM) read?
Answer: The ring closure, isolated yield was 38%.

Question: For `CCOC(=O)C12CC1C=CCCCCN(C)C(=O)C1CC(Oc3cc(OC)nc(OC)n3)CC1C(=O)N2` (stereo not drawn), which ring closure, isolated yield ([1]; from C=CCCCCN(C)C(=O)C1CC(Oc2cc(OC)nc(OC)n2)CC1C(=O)NC1(C(=O)OCC)CC1C=C, 1.91 mM) is on record?
Answer: The ring closure, isolated yield was 49%.

Question: With `CN1CCCCC=CC2CC2(C(=O)NS(=O)(=O)C2CC2)NC(=O)C2CC(Oc3ccnc(-c4ccccc4)n3)CC2C1=O` (stereo not drawn) [Example 10, Cyclopropanesulfonic acid [13-methyl-2,14-dioxo-17-(2-phenylpyrimidin-4-yloxy)-3,13-diaza-tricyclo[13.3.0.0*4,6*]octadec-7-ene-4-carbonyl]-amide] as the molecule, how does the ring closure, yield after HPLC [2] read?
Answer: The ring closure, yield after HPLC was 16%.

Question: What about the EC50 [3] of the same molecule?
Answer: Its EC50 is greater than 10 µM.

Question: And the Ki [4]?
Answer: Its Ki is greater than 1 µM.
